Test results from ChEMBL document CHEMBL6153074, “Discovery of novel dual tubulin and MMPs inhibitors for the treatment of lung cancer and overcoming drug resistance” (Eur J Med Chem, 2025).
Active and inactive are the calls of the source. The calls are words filed in the database; no cut-off is given here.

How the values were obtained:
MCF7 = assay: Antiproliferative activity against human MCF7 cells by CCK8 assay
[1] = Stability of compound in PBS at pH 7.4 measured for 24 to 72 hrs; type: physicochemical; conditions: buffer, time 24-72 hrs
A549 [2] = assay: Induction of DNA damage in human A549 cells assessed as increase in gamma-H2AX level at 0.5 uM incubated for 24 hrs by immunofluorescence based analysis; type: functional, cell-based
Tubulin (Homo sapiens) = Tubulin (Homo sapiens) (UniProt P68371+Q9H4B7+P0DPH7+P68366+Q13509+Q71U36+P04350+Q3ZCM7+P07437+P68363+Q9BQE3+Q6PEY2+Q13885+Q9BVA1+Q9BUF5); assay: Disruption of microtubule network in human A549 cells assessed as contraction towards cell border at 2.5 to 5 uM incubated for 24 hrs by immunofluorescence based analysis; conditions: dose 2.5-5 µM
A549 [3] = assay: Induction of apoptosis in human A549 cells assessed as necrotic cells at 0.5 uM incubated for 24 hrs by Annexin V-FITC/PI staining based flow cytometry (reference value: 0.13 %); type: functional
A549 [4] = assay: Induction of cell cycle arrest in human A549 cells assessed as accumulation at S phase at 0.5 uM incubated for 24 hrs by PI staining based flow cytometry (reference value: 37.95 %); type: functional
[5] = Toxicity in BALB/c mouse xenografted with human A549 cells assessed as effect on lung at 10 to 20 mg/kg, ip for 3 weeks administered on every 2 days by H and E staining based analysis; type: organism-based; conditions: in vivo, 504 h, dose 10-20 mg/kg
MDA-MB-231 = assay: Antiproliferative activity against human MDA-MB-231 cells by CCK8 assay
A549 [6] = assay: Induction of apoptosis in human A549 cells assessed as necrotic cells at 0.25 uM incubated for 24 hrs by Annexin V-FITC/PI staining based flow cytometry (reference value: 0.13 %); type: functional
A549 [7] = assay: Induction of cell cycle arrest in human A549 cells assessed as decrease in cdc25c by Western blot analysis; type: functional, cell-based
[8] = Toxicity in BALB/c mouse xenografted with human A549 cells assessed as effect on kidney at 10 to 20 mg/kg, ip for 3 weeks administered on every 2 days by H and E staining based analysis; type: organism-based; conditions: in vivo, 504 h, dose 10-20 mg/kg
A549 [9] = assay: Anti-migration activity in human A549 cells assessed as migration rate at 0.5 uM incubated for 24 hrs by wound healing assay (reference value: 73.94 %); type: functional
A549 [10] = assay: Induction of intracellular ROS accumulation in human A549 cells at 0.5 uM incubated for 24 hrs by DCFH-DA dye based flow cytometry (reference value: 4.96 %); type: functional
A549 [11] = assay: Downregulation of NF-kappaB p65 phosphorylation in TNF-alpha-treated human A549 cells by Western blot analysis; type: functional, cell-based
A549 [12] = assay: Antitumor activity against human A549 cells xenografted in BALB/c mouse at 20 mg/kg, ip for 3 weeks administered on every 2 days relative to control; type: functional; conditions: A549, 504 h, read-out: TGI
A549 [13] = assay: Antitumor activity against human A549 cells xenografted in BALB/c mouse assessed as decrease in Ki67 level at 20 mg/kg, ip for 3 weeks administered on every 2 days by IHC analysis; type: functional, organism-based
[14] = Toxicity in BALB/c mouse xenografted with human A549 cells assessed as body weight loss at 10 to 20 mg/kg, ip for 3 weeks administered on every 2 days; type: organism-based; conditions: in vivo, 504 h, dose 10-20 mg/kg

CCOP(=O)(OCC)C(Nc1ccc(CC(=O)Oc2cc(/C=C/C(=O)c3cc(OC)c(OC)c(OC)c3)ccc2OC)cc1)c1cccc([N+](=O)[O-])c1 (configuration not stated)
IC50 (MCF7): 253 nM | Stability [1]: Stable | Activity (A549 [2]): Active | Activity (Tubulin (Homo sapiens)): Active | Activity (A549 [3]): 0.93% | Activity (A549 [4]): 3.19% | Activity [5]: Non-toxic | IC50 (MDA-MB-231): 296 nM | Activity (A549 [6]): 0.3% | Activity (A549 [7]): Active | Activity [8]: Non-toxic | Activity (A549 [9]): 25.17% | Activity (A549 [10]): 70.79% | Activity (A549 [11]): Active | inhibition in vivo at 20 mg/kg (A549 [12]): 74.7% | Activity (A549 [13]): Active | Activity [14]: Non-toxic
